Converted amounts (≈) assume the structure as drawn. “And” between values parts separate entries of the source, which are not always exact repeats. Identical values can stand only once. Like-named read-outs stand apart in the source and are kept apart here. Marks after values point to notes of the source that are not given here.
Key:
[1] = tested on: Influenza B (Hong Kong/330/02); experiment: Antiviral assay in MDCK cells (CPE inhibition visual / Neutral Red), influenza B, initial and confirmatory test; assay type: cell-based, influenza type B virus; details: for antiviral activity rating in words: influenza virus B
Experimental: An antiviral test assay for the determination of the efficacy of DON was carried out according to the methods described in Furata et al., Antimicrobial Agents and Chemotherapy, 46(4):977-981 (2002). The vehicle used was Eagle's modification of minimum essential medium (EMEM). Two tests were carried out with different strains of influenza type A viruses and one test, followed by a confirmatory test, was carried out with an influenza type B virus strain. The cell type in all tests was Madin-Darby canine kidney cells (MDCK), and in all tests drug units and control units are expressed as micrograms/milliliter (μg/ml). […] The Safety Index (SI) of the drug could then be calculated according to the formula: SI═IC50/EC50. […] The Safety Index (SI) of the drug could then be calculated according to the formula: SI═IC50/ EC50, or SI═IC50/ EC90. All drug tests were carried out with stationary cells.

[2] = tested on: Influenza A (H1N1; New Caledonia/20/99); experiment: microbe, parasite or virus in culture; assay type: cell-based, influenza type A virus; details: for EC50: Influenza A virus, H1N1, MDCK, MDCK cells, H1N1 New Caledonia/20/99; for antiviral activity rating in words: influenza virus A (H1N1)
[3] = tested on: Influenza A (H3N2; Panama/2007/99); experiment: microbe, parasite or virus in culture; assay type: cell-based, influenza type A virus; details: for EC50: MDCK cells, H3N2 Panama/2007/99; for SI (Safety Index = IC50/EC50): H3N2; for antiviral activity rating in words: influenza virus A (H3N2)
[4] = tested on: Madin-Darby canine kidney cells (MDCK); experiment: cells; details: Canis lupus familiaris
[5] = tested on: Madin-Darby canine kidney cells (MDCK); details: at concentrations of 1-100 μg/ml
[6] = Influenza B virus, MDCK, Neutral Red assay, MDCK cells, influenza B Hong Kong/330/02, initial test, read-out: EC50
[7] = Influenza B virus, MDCK, confirmatory test, visual method, MDCK cells, influenza B Hong Kong/330/02, read-out: EC50
[8] = based on EC50 by Neutral Red, influenza B initial test
[9] = Influenza A virus, H3N2, MDCK, Neutral Red assay, read-out: EC50
[10] = read-out: IC50 (concentration toxic for 50% of MDCK host cells), in the influenza A H1N1 test, stationary cells
[11] = read-out: IC50 (concentration toxic for 50% of MDCK host cells), in the influenza A H3N2 test, stationary cells
[12] = read-out: IC50 (concentration toxic for 50% of MDCK host cells), in the influenza B confirmatory test, stationary cells
[13] = read-out: IC50 (concentration toxic for 50% of MDCK host cells), in the influenza B initial test, stationary cells
[14] = Influenza B virus, MDCK, CPE inhibition (visual), MDCK cells, influenza B Hong Kong/330/02, initial test, read-out: EC50
[15] = based on EC50 by CPE inhibition (visual), influenza B initial test
[16] = based on EC50 by CPE inhibition (visual), H1N1
[17] = based on EC50 by Neutral Red, H1N1
[18] = Influenza A virus, H3N2, MDCK, CPE inhibition (visual), read-out: EC50
[19] = based on EC50 by CPE inhibition (visual)

Structure (SMILES): NC(=O)c1ncn([C@@H]2O[C@H](CO)[C@@H](O)[C@H]2O)n1 [Positive control drug, ribavarin]
- EC50 [1, 6]: 2 µg/mL (≈ 8.19 µM)
- EC50 [1, 7]: 1.8 µg/mL (≈ 7.37 µM)
- EC90 ([1]; Influenza B virus, confirmatory test, visual method, MDCK cells, influenza B Hong Kong/330/02, read-out: EC90): 3.5 µg/mL (≈ 14.3 µM)
- EC50 ([1]; Neutral Red assay, MDCK cells, influenza B Hong Kong/330/02, initial test): 1.2 µg/mL (≈ 4.91 µM)
- SI (Safety Index = IC50/EC50) [1, 8]: >50 and >83
- SI (Safety Index = IC50/EC50) ([1]; influenza B confirmatory test): >56
- SI = IC50/EC90 ([1]; influenza B confirmatory test): >29^b
- SI (Safety Index = IC50/EC50) [2]: >18
- EC50 ([2]; CPE inhibition (visual)): 5.5 µg/mL (≈ 22.5 µM)
- EC50 ([2]; Neutral Red assay): 5.5 µg/mL (≈ 22.5 µM)
- EC50 [3, 9]: 4.3 µg/mL (≈ 17.6 µM)
- EC50 ([3]; Neutral Red assay): 5.5 µg/mL (≈ 22.5 µM)
- IC50 [4, 10]: > 100 µg/mL
- IC50 [4, 11]: > 100 µg/mL
- IC50 [4, 12]: > 100 µg/mL
- IC50 [4, 13]: > 100 µg/mL

Structure (SMILES): [N-]=[N+]=CC(=O)CC[C@H](N)C(=O)O [DON, 6-diazo-5-oxo-L-norleucine]
- toxicity in the neutral red assay [5]: 25-50%
- toxicity by neutral red assay in Vero cells compared with MDCK cells (Vero cells): much greater than in MDCK cells
- EC90 ([1]; Influenza B virus, MDCK): 2.5 µg/mL (≈ 14.6 µM)
- EC50 [1, 14]: 0.032 µg/mL (≈ 0.187 µM)
- EC50 [1, 6]: 0.14 µg/mL (≈ 0.818 µM)
- EC50 [1, 7]: 0.18 µg/mL (≈ 1.05 µM)
- SI (Safety Index = IC50/EC50) [1, 15]: 3,125
- SI (Safety Index = IC50/EC50) [1, 8]: 714
- SI (Safety Index = IC50/EC50) ([1]; influenza B confirmatory test): >555
- SI = IC50/EC90 ([1]; influenza B confirmatory test): 40^b
- antiviral activity rating in words [1]: active to highly active
- EC50 ([2]; CPE inhibition (visual)): 0.32 µg/mL (≈ 1.87 µM)
- EC50 ([2]; Neutral Red assay): 0.21 µg/mL (≈ 1.23 µM)
- SI (Safety Index = IC50/EC50) [2, 16]: 312
- SI (Safety Index = IC50/EC50) [2, 17]: 476
- antiviral activity rating in words [2]: active to highly active
- EC50 [3, 18]: 2.3 µg/mL (≈ 13.4 µM)
- EC50 [3, 9]: 1.8 µg/mL (≈ 10.5 µM)
- SI (Safety Index = IC50/EC50) [3, 19]: 43
- SI (Safety Index = IC50/EC50) ([3]; based on EC50 by Neutral Red): 56
- antiviral activity rating in words [3]: active to highly active
- IC50 [4, 10]: > 100 µg/mL
- IC50 [4, 11]: ≥ 100 µg/mL
- IC50 [4, 12]: > 100 µg/mL
- IC50 [4, 13]: ≥ 100 µg/mL

Structure (SMILES): N[C@H](C(=O)O)[C@@H]1CC(Cl)=NO1 [acivicin, (alpha-S,5S)-alpha-amino-3-chloro-2-isoxazoline-5-acetic acid]
- EC50 [1, 14]: 0.32 µg/mL (≈ 1.79 µM)
- EC50 [1, 6]: 0.32 µg/mL (≈ 1.79 µM)
- SI (Safety Index = IC50/EC50) [1, 15]: >312
- SI (Safety Index = IC50/EC50) [1, 8]: >312
- antiviral activity rating in words [1]: markedly active
- EC50 ([2]; CPE inhibition (visual)): 2.5 µg/mL (≈ 14 µM)
- EC50 ([2]; Neutral Red assay): 1.3 µg/mL (≈ 7.28 µM)
- SI (Safety Index = IC50/EC50) [2, 16]: >4
- SI (Safety Index = IC50/EC50) [2, 17]: >7.7
- antiviral activity rating in words [2]: weakly active to active
- EC50 [3, 18]: 50 µg/mL (≈ 280 µM)
- EC50 [3, 9]: 55 µg/mL (≈ 308 µM)
- SI (Safety Index = IC50/EC50) [3, 19]: >2
- SI (Safety Index = IC50/EC50) ([3]; based on EC50 by Neutral Red): 1.8
- antiviral activity rating in words [3]: not active
- IC50 [4, 10]: > 100 µg/mL
- IC50 [4, 11]: ≥ 100 µg/mL
- IC50 [4, 13]: ≥ 100 µg/mL
